Publication PMC6732362, “Cancer-associated variants of human NQO1: impacts on inhibitor binding and cooperativity” (Bioscience Reports, 2019)

Experiments:
human wild-type NQO1 [1] = target: T1, human wild-type NQO1 (Homo sapiens, UniProt P15559); test: biochemical
human wild-type NQO1 [2] = target: T1, human wild-type NQO1
human NQO1 p.R139W [3] = target: T2, human NQO1 p.R139W (Homo sapiens, UniProt P15559, R139W); test: biochemical
human wild-type NQO1 [4] = target: T1, human wild-type NQO1; test: Differential scanning fluorimetry (FAD release on thermal denaturation); format: binding; parameters: hexahistidine; made in house; host or cells: Escherichia coli; conditions: for effect on stability towards thermal denaturation (ΔTm): wild-type NQO1, concentration-dependent
human NQO1 p.R139W [5] = target: T2, human NQO1 p.R139W; test: as above; format: binding; parameters: hexahistidine; made in house; host or cells: Escherichia coli; conditions: for effect on stability towards thermal denaturation (ΔTm): p.R139W, concentration-dependent
human NQO1 p.P187S = target: T3, human NQO1 p.P187S (Homo sapiens, UniProt P15559, P187S); test: as above; format: binding
T3 construct: hexahistidine; made in house; host or cells: Escherichia coli
T3 sequence (P15559 whole entry P187S): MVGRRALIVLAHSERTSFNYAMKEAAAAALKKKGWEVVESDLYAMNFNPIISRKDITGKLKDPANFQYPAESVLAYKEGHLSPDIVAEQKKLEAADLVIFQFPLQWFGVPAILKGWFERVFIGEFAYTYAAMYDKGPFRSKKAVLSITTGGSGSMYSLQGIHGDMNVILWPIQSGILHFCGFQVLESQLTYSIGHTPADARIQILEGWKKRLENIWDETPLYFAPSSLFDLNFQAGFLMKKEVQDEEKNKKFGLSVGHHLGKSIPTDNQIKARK

human NQO1 p.R139W [6] = target: T2, human NQO1 p.R139W
[7] = wild-type, Dixon and [S]/v plots (data not shown)

T1 sequence (P15559 whole entry): as the sequence (P15559 whole entry P187S) above, with S187P counted along it
T2 sequence (P15559 whole entry R139W): as the sequence (P15559 whole entry P187S) above, with R139W, S187P counted along it

SMILES | Ki (human wild-type NQO1 [1]) | type of inhibition (human wild-type NQO1 [2]; NQO1, Dixon and [S]/v plots) | Hill coefficient (h) (human wild-type NQO1 [2]; wild-type NQO1, no additional FAD, 70 μM DCPIP, 300 μM NADH, mean of three Hill plots ± SD) | Ki (human NQO1 p.R139W [3]) | Kd (human wild-type NQO1 [4]; wild-type NQO1 2 μM dimer, from ΔTm vs inhibitor concentration, HEPES-OH pH 7.3, read-out: KD,app) | effect on stability towards thermal denaturation (ΔTm) (human wild-type NQO1 [4]) | Kd (human NQO1 p.R139W [5]; p.R139W 2 μM dimer, from ΔTm vs inhibitor concentration, HEPES-OH pH 7.3, read-out: KD,app) | effect on stability towards thermal denaturation (ΔTm) (human NQO1 p.R139W [5]) | effect on stability towards thermal denaturation (ΔTm) (human NQO1 p.P187S) | Hill coefficient (h) (human NQO1 p.R139W [6]; p.R139W, no additional FAD, 70 μM DCPIP, 300 μM NADH, mean of three Hill plots ± SD) | type of inhibition with respect to NADH (human wild-type NQO1 [2]; [7]) | type of inhibition with respect to NADPH (human wild-type NQO1 [2]; [7]) | type of inhibition with respect to NADH (human NQO1 p.R139W [6]; p.R139W (data not shown)) | type of inhibition with respect to NADPH (human NQO1 p.R139W [6]; p.R139W (data not shown))
NC(=O)c1cccnc1 [Nicotinamide, nicotinamide] | 14 ± 4.34 mM | mixed | 0.91 ± 0.06 | 13.5 ± 3.22 mM | 6 ± 0.9 mM | stabilized | 18.2 ± 5.2 mM | stabilized | no detectable effect | 0.92 ± 0.05 |  |  |  | 
Oc1ccc(/C=C/c2cc(O)cc(O)c2)cc1 [Resveratrol, resveratrol] | 0.375 ± 0.129 mM |  |  |  |  | destabilised |  | destabilised | destabilised |  | mixed | competitive | uncompetitive | mixed
